Test results: publication PMC12165925 (Natural Products and Bioprospecting, 2025)

Legend:
Assay in all cases: microbe, parasite or virus in culture
Assay type in all cases: cell-based
Details in all cases: hACE2-HEK293T cells
[1] = system: SARS-CoV-2-S pseudovirus Gamma variant
[2] = system: SARS-CoV-2-S pseudovirus Delta variant
[3] = system: SARS-CoV-2-S pseudovirus Omicron variant

Row | Structure (SMILES) | IC50 [1] [nM] | IC50 [2] [nM] | IC50 [3] [nM]
1 | C[C@@H]1O[C@@H](O[C@H]2[C@H](OC(=O)[C@]34CCC(C)(C)C[C@H]3C3=CC[C@@H]5[C@@]6(C)C[C@H](O)[C@H](O[C@@H]7O[C@H](CO)[C@@H](O)[C@H](O)[C@H]7O)C(CO)(CO)[C@@H]6CC[C@@]5(C)[C@]3(C)C[C@H]4O)OC[C@H](O)[C@@H]2O)[C@H](O)[C@H](O)[C@H]1O[C@@H]1OC[C@@H](O)[C@H](O)[C@H]1O [DPD, Deapio platycodin D] | 1000 ± 40 | 830 ± 70 | 1030 ± 20
2 | Oc1cc(O)c2cc(O)c(-c3cc(O)c(O)c(O)c3)[o+]c2c1 [Delphinidin] | > 200000 | > 200000 | 10800 ± 680
